Test results: article PMC9241057, “Ru(II)arene(N^N bpy/phen)-based RAPTA complexes for in vitro anti-tumour activity in human glioblastoma cancer cell lines and in vivo toxicity studies in a zebrafish model” (RSC Advances, 2022)

Key:
[1] = system: T98G cells; assay: Neurosphere assay; format: cell-based, human; conditions: T98G, 20, 80 and 160 μM
Experimental: The neurosphere assay is one of the best methods for analysing the stem cell capacity of isolated brain cells.[23] The stem cell media was used to grow T98G cells through single-cell division within 3 days and subsequently the development of small-diameter “neurosphere-like” tumour spheres within 7 days. After 12–14 days of culture, a phase-contrast microscope was used to take the image of the tumour spheres. To promote differentiation, DMEM (containing 10% FBS) medium was added to the tumour spheres.
Fig. 5 Neurosphere assay using different concentrations: (b) 20 μM, (c) 80 μM and (d) 160 μM of complex 4c against the T98G cell line; (a) pre-treatment (concentration of 4c = 0 μM).
Serum-free DMEM/F-12 (1 : 1), B27 (1 : 50), EGF (20 μg L^−1), bFGF (20 μg L^−1), antibiotic (Gibco) were added to stem cell media. The cells were grown in a tissue culture incubator with 5% CO2 at […]. Serum-free media were changed twice a week.

[2] = system: EtBr-bound DNA (Ct-DNA); assay: EtBr displacement assay (fluorescence); format: binding, calf; conditions: for Ksv, Stern-Volmer quenching constant: EtBr-bound DNA; for Kapp, apparent DNA binding constant: competitive displacement of EtBr
Experimental: Ethidium bromide displacement assay […]
bromide (EtBr) displacement experiment was used.3 Using ethidium bromide (EtBr) as a spectral probe in 5 mM Tris-HCl buffer, the apparent binding constant (K app) of the RAPTA complex 4c to Ct-DNA was determined at pH = 7.4. Because the fluorescence of EtBr was quenched by the solvent molecules, it was unable to show any fluorescence in its free state.
However, in the presence of Ct-DNA, its fluorescence intensity began to increase, indicating that EtBr binds to DNA […] in an intercalative manner. With increasing concentrations of […]
complexes displaced EtBr from CT-DNA grooves and were linked to the DNA base pairs itself. The values of the apparent binding constant (K app) were obtained by using the equation […]
Kapp × [Complex]50 = kEtBr × [EtBr]⋯⋯⋯(iii)
Where KEtBr is the EtBr binding constant (K EtBr = 1.0 x 107 M-1), and [EtBr] = 8 x 10^-6 M.
Stern-Volmer equation was followed for quantitative determination of the Stern-Volmer quenching constant (K SV).4 Origin (8.5) software was used to plot the fluorescence data to obtain linear plot of I0/I vs. [complex]. The value of KSV was calculated from the following […]
Where I0 = fluorescence intensity in absence of complex and I = fluorescence intensities in presence of complex of concentration [Q]. […]

[3] = system: zebrafish embryos; conditions: embryos exposed for 5 h to 100 μM
Experimental: Zebrafish were purchased from Zebrafish CRO, Pentagrit Discovery, Chennai 600100. All the procedures were conducted with reference to the guidelines of OECD 203 (OECD 203, 1992).[29] The local wild-type zebrafish strain weighing approximately 500–600 mg (2–3 months old) were maintained under standard laboratory conditions at 28 °C under a 14 : 10 h light/dark cycle with the conductivity of the water being 350 μS, maintained at pH 7.2–7.4. All the animal experiments including surgical procedures were conducted according to the procedures of the Committee for the Purpose of Control and Supervision of Experiments on Animals (CPCSEA), Govt. of India, as instructed by Institutional Animal ethical guidelines (VIT/IAEC/2019/16/Aug10/15), VIT University.[29] All animal procedures were performed in accordance with the Guidelines for Care and Use of Laboratory Animals of “VIT” University and approved by the Animal Ethics Committee of “VIT”.
Freshly laid eggs [<1 h post-fertilisation (hpf)] were transferred to 50 ml crystallising dishes filled with the respective test solutions. After the successful control of fertilisation, the eggs were separately transferred to 24-well plates with 2 ml of test solution per well. […] The embryos were analysed under an Olympus CKX41 inverted microscope (Olympus, Hamburg, Germany).

[4] = Solubility; conditions: DMSO-10% DMEM medium (1:99 v/v, comparable to cell media)
[5] = system: zebrafish; assay: In vivo biodistribution study in zebrafish; conditions: 25 μg g^−1, 15 minutes
Experimental: Biodistribution and sequestration studies of complex 4c were conducted via the caudal vein injection into the zebrafish. After 15 minutes (25 μg g^−1) of exposure, the fish were sacrificed and different organs (brain, heart, kidney, intestine, notochord and digestive system) were dissected and the biodistribution of this complex into these organs was measured by fluorescence microscopy. A comparative study was performed with complex 4c and Evans blue dye and was analyzed by the confocal imaging of the tissue sections. From this experiment, it was observed that the sensitivity of zebrafish towards 4c was sequestered in the brain, heart, kidney, intestine, notochord and digestive system. […] Furthermore, this fluorescence-based interaction could provide us with an idea of the uptake mechanism via crossing the blood–brain barrier.
Zebrafish were anesthetized with 2-phenoxyethanol and injected with complex 4cvia […]. After injection at different times, the fish were sacrificed and the organs were collected and fixed with 4% paraformaldehyde and 4% glutaraldehyde, followed by dehydration with the gradient increase of ethanol (75%, 95%, 100%) for 20 min each, further with xylene for 1 h and then fixed in Paraplast. […] Sequestration of complex 4c in different organs was investigated by confocal fluorescence microscopy using a CLSM (Zeiss LSM 710) microscope. […]

[6] = n-Octanol/water partition coefficient, shake-flask method
Experimental: n-Octanol–water partition coefficient (log P o/w)8
Using the previously reported shake flask approach, the log Po/w of the RAPTA complexes
followed the previously described procedure. An orbital shaker was used to shake a known
amount of each complexes in water (pre-saturated with n-octanol). The solution was
centrifuged at 3000 rpm for 10 minutes to allow phase separation. Different ratios (0.5:1, 1:1,
and 2:1) of saturated solutions were shaken for 20 minutes on an orbital shaker with pre-
saturated n-octanol to get the partition coefficient. The absorbance of aliquots of the aqueous
and octanol layers were measured with a UV-Vis spectrophotometer after adequate dilution.
The concentrations of the complexes in each layer were estimated using the corresponding
molar extinction coefficients, and the partition coefficient (log Po/w) values were computed

[7] = system: U87MG cells; assay: Cell cycle analysis by flow cytometry; format: cell-based, human; conditions: 0.93 μM
Experimental: As per the results of the MTT assay, there was an inhibition of cell proliferation that was further validated by determining the cellular damage, DNA damage and oxidative stress. Therefore, we went forward to investigate the DNA content by flow cytometry. […] We also observed a low S phase and M phase after the complex treatment (Fig. 4).
Fig. 4 Cell cycle analysis with the control U87MG cells (above) and the treatment of 0.93 μM 4d (below). TEXT PRINTED IN THE PICTURE: 4d: G0-G1(70.49%); S(21.32%); M(2.49%); Sub G1(3.48%) DOUBTS OF THE COPYIST ABOUT THIS PICTURE: 4d, G0-G1: 70.49% - blurred print, 9 could be 8 / 4d, S: 21.32% - blurred print, 3 could be 8 / 4d, M: 2.49% - blurred print, 9 could be 8 / 4d, Sub G1: 3.48% - blurred print, 3 and 8 not certain (3.46 or 3.48) / The Control plots (untreated cells, not a substance) print P2(43.61%), P3(29.04%), P4(24.36%), Sub G1(6.24%); these are left out of the lines, and their digits are blurred too

Structure (SMILES)	effect on neurospheres [1]	Ksv, Stern-Volmer quenching constant [2] [M⁻¹]	Ksv, Stern-Volmer quenching constant ([2]; Table S2) [M⁻¹]	Kapp, apparent DNA binding constant [2] [M⁻¹]	Kapp, apparent DNA binding constant ([2]; Table S2) [M⁻¹]	morbidity or mortality of embryos [3]	solubility [4] [mM]	accumulation in the brain [5]	sequestration in digestive system, kidney and notochord [5]	log P (partition coefficient in n-octanol/water) [6]	G0/G1 phase [7] [%]
C1N2CN3CN1CP(C2)C3.Cc1ccc(C(C)C)cc1.Cc1ccnc2c1ccc1c(C)ccnc12.F[P-](F)(F)(F)(F)F.F[P-](F)(F)(F)(F)F.[Ru+2] [4c, [(η^6-p-Cymene)Ru^II(κ^2-N,N-4,7dimethylphenanthroline)(PTA)]·2PF6]	Complete developmental neurotoxicity	180	180	1.38e+06	1.38e+06	No significant morbidity or mortality	18	accumulation was significant	maximum sequestration	0.30±0.04	
C1N2CN3CN1CP(C2)C3.Cc1ccc(C(C)C)cc1.F[P-](F)(F)(F)(F)F.F[P-](F)(F)(F)(F)F.[Ru+2].c1ccc(-c2ccnc3c2ccc2c(-c4ccccc4)ccnc23)cc1 [4d, [(η^6-p-Cymene)Ru^II(κ^2-N,N-4,7diphenylphenanthroline)(PTA)]·2PF6]											~70.49
